Values of other authors, collected in patent US5516790A, “Synthesis and application of alkyl-substituted dibenzofurans as antitumorigenic agents” (Texas A&M University System Technology Licensing Office, priority 1994, dated 1996).

Details: in vivo; cited from earlier work

In the case of `Clc1cc2c(cc1Cl)Oc1cc(Cl)c(Cl)cc1O2` [TCDD, 2,3,7,8-tetrachloridibenzo-p-dioxin], the hepatocarcinogenicity is given as “so hepatocarcinogenic”.
